Laboratory results from patent US9642821B2, “MiR-182 in the diagnosis and treatment of cancer” (Dana-Farber Cancer Institute, Inc., priority 2010, dated 2017).
“Also recorded” adds a separate entry of the source.

Columns and labels:
Assay type in all cases: cell-based
[1] = tested on: BRCA1 3′UTR-luciferase reporter; assay: Luciferase reporter assay with BRCA1 3′UTR in HeLa cells
Method: The wild type (WT) and mutated (M) miR-182 recognition elements of 3′UTR-BRCA1 were annealed (see below) and cloned in expression vector, pMIR-REPORT (Ambion, Austin, Tex.) downstream to Firefly Luciferase.
Hela cells were co-transfected in a 24 well tissue culture plate with 10 nM control mimic (Ambion, Austin, Tex.) or miR-182 mimic (Ambion, Austin, Tex.), 0.2 μg 3′UTR-BRCA1-WT or 3′UTR-BRCA1-M, and 0.2 μg Renilla luciferase in pRL-TK (Promega, Madison, Wis.) vector using lipofectamine 2000 as described in manufacture's manual. Cells were harvested on day 2 and the luciferase activity was assayed with the Dual-Luciferase Assay System (Promega, Madison, Wis.) and a Synergy HT microplate reader (BioTek, Winooski, Vt.) as described in manufacture's manual.

MDA-MB231 cells [2] = assay: Clonogenic cell survival assay after γ-radiation, MDA-MB231; details: MDA-MB231, vs control mimic
Method: (§1) Hela cells (0.35×10^6 cells/well), MDA-MB231 cells (0.4×10^6 cells/well), 21NT cells (0.5×10^6) were seeded overnight and transfected with 10 nM of miRNA mimics or antagomirs (Ambion, Austin, Tex.) using Lipofectamine 2000. In rescue experiments, miR-182 or control mimics were co-transfected with 1 μg/ml BRCA1 (pcDNA3.1 vector). After 2 days, 1000 cells in 4 ml DMEM media (10% FBS v/v) were seeded on 6 cm tissue culture dishes in four replicates and allowed to attach overnight before treatment. PARP inhibitors (4-amino-1,8-naphthalimide (Sigma, St. Louis, Mo.) or ABT-888 (ChemieTek, Indianapolis, Ind.) in DMSO) were added to the growth media at indicated concentrations. Irradiated cells as well as cells in the presence of PARP inhibitor were allowed to form colonies for 14 days. For evaluation, formed colonies were stained with crystal violet and surviving colonies containing >50 cells were counted. Plating efficiency was 30-50%.

U2OS cells = assay: G2/M checkpoint, phospho-H3 flow cytometry after IR; details: 5 Gy IR, nocodazole, P-H3 staining
Method: U2OS cells (0.35×10^6 cells/well) were transfected with 10 nM control mimic or miR-182 mimic and, in rescue experiments, co-transfected with 1 μg of BRCA1 (lacking 3′UTR) expression construct using Lipofectamine 2000. After 2 days, cells were seeded into the wells of 12-well tissue culture plates, incubated overnight, irradiated (5 Gy) and released in nocadozole (200 ng/ml) containing media after 2 hours. The next day the cells were stained with primary Phospho-H3 (Ser10) antibodies 1:100 dilution (Upstate Biotechnology, Lake Placid, N.Y.) and FITC-labeled secondary antibodies 1:50 dilution (Santa Cruz Biotechnology, Santa Cruz, Calif.) and analyzed by flow cytometry.

BRCA1 = BRCA1 expression after ectopic miRNA overexpression in HL60 cells (immunoblot, qPCR)
Method: Analysis of the miRNAs of the miR-183 cluster was conducted using qPCR using the TaqMan MicroRNA Assay from Applied Biosystems as per the manufacturer's instructions and normalized to RNU6B snRNA. Analysis of mRNA expression was carried out with qPCR using the SYBR Green master mix (Applied Biosystems, Foster City, Calif.) according to the manufacture's manual and the BioRad iCycler. The mRNA (1 μg) was reverse transcribed with 50 ng random primers using 100 U moloney murine leukemia virus (MMLV) reverse transcriptase (Epicentre, Madison, Wis.) according to the manufacturer's manual. Results were normalized to 5SrRNA or GAPDH.
In each experiment, where Western blot analysis was done, a fraction of 0.2−0.5×10^6 cells was taken out at day, 3 or 4, post-transfection. Breast cancer cell lines were collected from 6 well tissue culture plates (0.5-1×10^6 cells). Cells lysates were prepared in RIPA buffer (150 mM NaCl, 1% NP-40, 0.5% sodium deoxycholate, 0.1% SDS, 50 mM Tris, pH 8.0). Lysates of 0.1×10^6 cells of each sample plus loading buffer were loaded on 8% SDS-PAGE gels, semi-dry transferred on nitrocellulose membrane, and probed with anti-BRCA1 antibody at a 1:500 dilution (CALBIOCHEM, MS110) and anti-tubulin antibody at a 1:10,000 dilution (Sigma, Clone B-5-1-2).

U2OS-DR-GFP cells = assay: Homologous recombination (HR) DR-GFP reporter assay; details: U2OS DR-GFP stably expressing miR-182, I-SceI
Method: U2OS-DR-GFP cells, with a single, stably integrated copy of the transgenic reporter DR-GFP were seeded (0.35×10^6 cells/well) into the wells of a 6-well tissue culture plate, transfected with a control and an miR-182 expression construct. Cells were selected for 4 weeks with 100 μg/ml of puromycin. mir-182 overexpression was confirmed with qPCR (FIG. 3C). HR assay was done as described (Chowdhury et al., Mol. Cell, 31:33-46 (2008)). Briefly, 2×10^5 cells plated overnight in 24-well plates were transfected with 0.8 μg of I-SceI expression plasmid (pCBA Sce) using Lipofectamine 2000. 2 days later, GFP positive cells were assayed by FACScan flow cytometer.

MDA-MB231 cells [3] = assay: Clonogenic cell survival assay with PARP inhibitors, MDA-MB231; details: MDA-MB231, 14 days, vs control mimic
Method: as §1

miR-182: microRNA with sequence 5′ UUUGGCAAUGGUAGAACUCACACU 3′ (SEQ ID NO:1); given as mimic (Ambion) or expression vector (UUUGGCAAUGGUAGAACUCACACU; listed as RNA, chemistry not given here; listed as Homo sapiens)
effect of miR-182 on luciferase with mutated miR-182 recognition sites (BRCA1-M reporter) [1]: significantly reduced the effect; also recorded: rescued this suppression | reduction of luciferase activity, wildtype BRCA1-reporter ([1]; 10 nM mimic, vs control mimic): more than 2 fold | luciferase activity of BRCA1-WT reporter ([1]; normalized to Renilla, p<0.001): suppressed luciferase activity | sensitivity to IR (clonogenic survival) (MDA-MB231 cells [2]): significantly more sensitive | sensitivity to IR (clonogenic survival) (MDA-MB231 cells [2]; listed as miR-182 mimic): significantly enhanced sensitivity to IR | mitotic cells post-DNA damage (G2/M checkpoint) (U2OS cells): significant increase in mitotic cells; also recorded: impacts the G2/M checkpoint | BRCA1 protein level (BRCA1; HL60 cells transiently transfected with expression vectors, Western blot): significant decrease | BRCA1 mRNA level (BRCA1; ectopic overexpression, data not shown): moderate decrease | HR-mediated DSB repair efficiency (GFP positive cells) (U2OS-DR-GFP cells): significantly reduced HR-efficiency; also recorded: impedes homologous recombination-mediated repair | sensitivity to PARP1 inhibitor ABT-888 (clonogenic survival) (MDA-MB231 cells [3]): sensitize MDA-MB231 cells to PARP1 inhibition | sensitivity to PARP1 inhibitor ANI (clonogenic survival) (MDA-MB231 cells [3]): sensitize MDA-MB231 cells to PARP1 inhibition | sensitivity to PARP1 inhibitor ABT-888 (clonogenic survival) (MDA-MB231 cells [3]; listed as 182 mimic): impacts sensitivity to PARP1 inhibitor ABT-888 | sensitivity to PARP1 inhibitor ANI (clonogenic survival) (MDA-MB231 cells [3]; listed as miR-182 mimic): significantly enhanced sensitivity to ANI
